Columns and labels:
Type in all cases: cell-based
human TLR9 = human TLR9 (Homo sapiens (Human), UniProt Q9NR96); test: TLR9 inhibition reporter assay (HEK-Blue, SEAP); settings: HEK-Blue cells overexpressing human TLR9, ODN2006 5 nM stimulation
Protocol: (§1) TLR7/8/9 Inhibition Reporter Assays
(§2) HEK-Blue™-cells (Invivogen) overexpressing human TLR7, TLR8 or TLR9 receptors were used for screening inhibitors of these receptors using an inducible SEAP (secreted embryonic alkaline phosphatase) reporter gene under the control of the IFN-β minimal promoter fused to five NF-κc Band AP-1-binding sites. Briefly, cells are seeded into Greiner 384 well plates (15000 cells per well for TLR7, 20,000 for TLR8 and 25,000 for TLR9) and then treated with test compounds in DMSO to yield a final dose response concentration range of 0.05 nM-50 μM. After a 30 minute compound pre-treatment at room temperature, the cells are then stimulated with a TLR7 ligand (gardiquimod at a final concentration of 7.5 μM), TLR8 ligand (R848 at a final concentration of 15.9 μM) or TLR9 ligand (ODN2006 at final concentration of 5 nM) to activate NF-κB and AP-1 which induce the production of SEAP. After a 22 hour incubation at 37° C., 5% CO2, SEAP levels are determined with the addition of HEK-Bue™ Detection reagent (Invivogen), a cell culture medium that allows for detection of SEAP, according to manufacturer's specifications. The percent inhibition is determined as the % reduction in the HEK-Blue signal present in wells treated with agonist plus DMSO alone compared to wells treated with a known inhibitor.

human TLR8 = human TLR8 (Homo sapiens (Human), UniProt Q9NR97); test: TLR8 inhibition reporter assay (HEK-Blue, SEAP); settings: HEK-Blue cells overexpressing human TLR8, R848 15.9 μM stimulation
Chain of human TLR8 (Q9NR97 27-1041): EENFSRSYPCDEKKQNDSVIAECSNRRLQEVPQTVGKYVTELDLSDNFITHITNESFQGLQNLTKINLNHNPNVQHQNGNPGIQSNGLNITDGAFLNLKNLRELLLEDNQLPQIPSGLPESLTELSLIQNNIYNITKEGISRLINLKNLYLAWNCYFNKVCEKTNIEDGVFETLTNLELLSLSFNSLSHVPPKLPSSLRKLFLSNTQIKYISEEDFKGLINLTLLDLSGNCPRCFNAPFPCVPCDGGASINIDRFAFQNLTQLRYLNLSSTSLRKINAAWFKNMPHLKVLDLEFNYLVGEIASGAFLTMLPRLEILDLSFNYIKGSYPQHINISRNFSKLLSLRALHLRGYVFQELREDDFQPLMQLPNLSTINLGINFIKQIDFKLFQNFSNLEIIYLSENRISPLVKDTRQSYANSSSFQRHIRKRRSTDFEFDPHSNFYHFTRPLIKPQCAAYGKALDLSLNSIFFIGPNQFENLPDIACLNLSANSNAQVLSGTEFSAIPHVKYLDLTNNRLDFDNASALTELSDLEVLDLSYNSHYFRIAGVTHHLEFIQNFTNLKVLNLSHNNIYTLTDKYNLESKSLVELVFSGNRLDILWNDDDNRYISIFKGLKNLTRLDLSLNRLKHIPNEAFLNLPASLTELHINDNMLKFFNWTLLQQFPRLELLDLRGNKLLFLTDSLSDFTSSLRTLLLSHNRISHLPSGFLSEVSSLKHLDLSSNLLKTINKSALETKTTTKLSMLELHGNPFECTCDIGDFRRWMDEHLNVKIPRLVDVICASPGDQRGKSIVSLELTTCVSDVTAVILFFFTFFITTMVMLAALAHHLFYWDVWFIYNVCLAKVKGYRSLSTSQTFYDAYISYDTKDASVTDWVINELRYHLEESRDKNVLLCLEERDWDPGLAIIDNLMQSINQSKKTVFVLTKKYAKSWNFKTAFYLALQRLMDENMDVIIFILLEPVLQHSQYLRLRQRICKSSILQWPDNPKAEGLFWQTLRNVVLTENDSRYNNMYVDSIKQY
Protocol: as §1, §2

human TLR7 = human TLR7 (Homo sapiens (Human), UniProt Q9NYK1); test: TLR7 inhibition reporter assay (HEK-Blue, SEAP); settings: HEK-Blue cells overexpressing human TLR7, gardiquimod 7.5 μM stimulation
Chain of human TLR7 (Q9NYK1 27-1049): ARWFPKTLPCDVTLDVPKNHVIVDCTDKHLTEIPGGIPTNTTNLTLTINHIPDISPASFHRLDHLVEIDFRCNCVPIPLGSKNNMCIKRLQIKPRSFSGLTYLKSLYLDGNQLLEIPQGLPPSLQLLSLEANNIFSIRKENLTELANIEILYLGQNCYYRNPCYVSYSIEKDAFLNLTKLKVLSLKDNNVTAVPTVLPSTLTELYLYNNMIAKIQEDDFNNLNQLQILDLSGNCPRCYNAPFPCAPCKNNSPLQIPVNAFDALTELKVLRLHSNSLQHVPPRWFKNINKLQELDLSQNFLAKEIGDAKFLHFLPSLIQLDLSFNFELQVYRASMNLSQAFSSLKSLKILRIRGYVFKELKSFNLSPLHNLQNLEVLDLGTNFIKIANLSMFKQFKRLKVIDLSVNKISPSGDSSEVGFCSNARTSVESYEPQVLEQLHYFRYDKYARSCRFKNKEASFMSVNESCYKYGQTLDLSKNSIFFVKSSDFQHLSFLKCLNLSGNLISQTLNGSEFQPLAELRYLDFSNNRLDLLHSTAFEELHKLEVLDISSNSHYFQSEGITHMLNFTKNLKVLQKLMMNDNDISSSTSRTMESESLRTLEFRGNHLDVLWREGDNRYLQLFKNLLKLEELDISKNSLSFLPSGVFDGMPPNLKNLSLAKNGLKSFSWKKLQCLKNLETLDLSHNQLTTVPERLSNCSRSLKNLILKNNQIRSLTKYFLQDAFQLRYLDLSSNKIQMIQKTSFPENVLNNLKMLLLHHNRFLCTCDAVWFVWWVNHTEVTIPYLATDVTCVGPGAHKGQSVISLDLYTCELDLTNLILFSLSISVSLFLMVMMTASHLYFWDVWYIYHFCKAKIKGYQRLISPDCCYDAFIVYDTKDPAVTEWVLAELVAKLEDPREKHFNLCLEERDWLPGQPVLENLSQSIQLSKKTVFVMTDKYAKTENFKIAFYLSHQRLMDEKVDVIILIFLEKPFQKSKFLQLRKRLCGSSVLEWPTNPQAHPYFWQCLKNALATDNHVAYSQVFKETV
Protocol: as §1, §2

Chain of human TLR9 (Q9NR96 26-1032): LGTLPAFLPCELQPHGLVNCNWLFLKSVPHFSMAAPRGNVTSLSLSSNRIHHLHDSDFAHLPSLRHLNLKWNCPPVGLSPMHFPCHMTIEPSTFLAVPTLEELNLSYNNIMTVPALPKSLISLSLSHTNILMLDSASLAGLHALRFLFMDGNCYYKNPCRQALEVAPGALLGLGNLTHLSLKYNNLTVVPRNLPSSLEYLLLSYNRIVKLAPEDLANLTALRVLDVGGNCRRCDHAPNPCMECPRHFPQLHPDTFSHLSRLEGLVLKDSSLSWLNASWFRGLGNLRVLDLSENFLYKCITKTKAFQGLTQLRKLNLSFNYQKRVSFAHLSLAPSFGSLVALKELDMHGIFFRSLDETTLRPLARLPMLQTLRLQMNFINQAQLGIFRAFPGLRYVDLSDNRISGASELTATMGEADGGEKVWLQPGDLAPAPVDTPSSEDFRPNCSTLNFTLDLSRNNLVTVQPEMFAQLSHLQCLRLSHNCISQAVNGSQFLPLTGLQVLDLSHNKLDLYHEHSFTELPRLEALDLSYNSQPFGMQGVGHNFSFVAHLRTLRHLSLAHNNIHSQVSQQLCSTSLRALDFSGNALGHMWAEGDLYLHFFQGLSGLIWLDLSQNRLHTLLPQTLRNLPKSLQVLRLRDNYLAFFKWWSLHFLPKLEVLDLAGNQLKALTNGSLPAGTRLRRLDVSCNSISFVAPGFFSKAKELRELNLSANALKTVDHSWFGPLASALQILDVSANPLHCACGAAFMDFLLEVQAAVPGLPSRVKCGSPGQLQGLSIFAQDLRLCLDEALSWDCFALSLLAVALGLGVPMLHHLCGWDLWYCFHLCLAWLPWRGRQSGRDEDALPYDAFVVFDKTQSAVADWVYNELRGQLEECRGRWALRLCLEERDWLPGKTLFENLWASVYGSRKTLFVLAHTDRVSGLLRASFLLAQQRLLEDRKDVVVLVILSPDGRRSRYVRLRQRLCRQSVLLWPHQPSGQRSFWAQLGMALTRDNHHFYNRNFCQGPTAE

SMILES | IC50 (human TLR9) | IC50 (human TLR8) | IC50 (human TLR7)
Cc1cc(-c2[nH]c3ccc(-c4ccc(NC(=O)[C@@H]5CCNC5)nc4)cc3c2C(C)C)ccn1 [Example 209, (R)—N-(5-(3-isopropyl-2-(2-methylpyridin-4-yl)-1H-indol-5-yl)pyridin-2-yl)pyrrolidine-3-carboxamide] | 828 nM | 67 nM | 169 nM
Cc1cc(-c2[nH]c3ccc(-c4nccs4)cc3c2C(C)C)ccn1 [Example 171, 2-(3-isopropyl-2-(2-methylpyridin-4-yl)-1H-indol-5-yl)thiazole] | > 50000 nM | 19 nM | 159 nM
Cc1cc(-c2[nH]c3ccc(-c4ccc(NC(=O)C(F)(F)F)nc4)cc3c2C(C)C)ccn1 [Example 295, 2,2,2-trifluoro-N-(5-(3-isopropyl-2-(2-methylpyridin-4-yl)-1H-indol-5-yl)pyridin-2-yl)acetamide] | 17900 nM | 2.7 nM | 11 nM
COc1ccc(-c2[nH]c3ccc(-c4cnc(N5CCN(Cc6cccn6C)CC5)nc4)cc3c2C(C)C)cc1OC [Example 430, 2-(3,4-dimethoxyphenyl)-3-isopropyl-5-(2-(4-((1-methyl-1H-pyrrol-2-yl)methyl)piperazin-1-yl)pyrimidin-5-yl)-1H-indole] | 11900 nM | – | 1340 nM
CC(C)c1c(-c2ccnc3[nH]ncc23)[nH]c2ccc(-c3cc(N4CCC(N)CC4)ncn3)cc12 [Example 208, 1-(6-(3-isopropyl-2-(1H-pyrazolo[3,4-b]pyridin-4-yl)-1H-indol-5-yl)pyrimidin-4-yl)piperidin-4-amine] | 1220 nM | 9.3 nM | 139 nM
COc1ccc(-c2[nH]c3ccc(-c4ccc(-c5cccnc5)cc4)cc3c2C(C)C)cc1OC [Example 406, 2-(3,4-dimethoxyphenyl)-3-isopropyl-5-(4-(pyridin-3-yl)phenyl)-1H-indole] | > 50000 nM | 2220 nM | 2610 nM
Cc1cc(-c2[nH]c3ccc(-c4ccc(N5CCN(C(C)C)CC5)nc4)cc3c2C(C)C)ccn1 [Example 302, 3-isopropyl-5-(6-(4-isopropylpiperazin-1-yl)pyridin-3-yl)-2-(2-methylpyridin-4-yl)-1H-indole] | 2320 nM | 28 nM | –
CNCCNc1ccc(-c2ccc3[nH]c(-c4ccc(OC)c(OC)c4)c(C(C)C)c3c2)cc1 [Example 404, N1-(4-(2-(3,4-dimethoxyphenyl)-3-isopropyl-1H-indol-5-yl)phenyl)-N2-methylethane-1,2-diamine] | 9680 nM | 38 nM | 246 nM
COc1ccc(-c2ccc3[nH]c(-c4ccnc5[nH]ncc45)c(C(C)C)c3c2)cn1 [Example 422, 4-(3-isopropyl-5-(6-methoxypyridin-3-yl)-1H-indol-2-yl)-1H-pyrazolo[3,4-b]pyridine] | – | 662 nM | 4100 nM
COc1ccc(-c2[nH]c3ccc(-c4ccc(N5CCN(CC(C)C)CC5)nc4)cc3c2C(C)C)cc1OC [Example 391, 2-(3,4-dimethoxyphenyl)-5-(6-(4-isobutylpiperazin-1-yl)pyridin-3-yl)-3-isopropyl-1H-indole] | 4360 nM | 73 nM | –
COc1ccc(-c2[nH]c3ccc(-c4cnc(N5CCN(CC(C)C)CC5)n4C)cc3c2C(C)C)cc1OC [Example 433, 2-(3,4-dimethoxyphenyl)-5-(2-(4-isobutylpiperazin-1-yl)-1-methyl-1H-imidazol-5-yl)-3-isopropyl-1H-indole] | 2110 nM | – | 145 nM
CC(C)c1c(-c2ccc3nccn3c2)[nH]c2ccc(-c3nnc([C@@H]4CCCNC4)o3)cc12 [Example 244, (R)-2-(2-(imidazo[1,2-a]pyridin-6-yl)-3-isopropyl-1H-indol-5-yl)-5-(piperidin-3-yl)-1,3,4-oxadiazole] | – | 422 nM | 153 nM
Cc1cc(-c2[nH]c3ccc(-c4nc(C(=O)NC5CCN(C(C)C)CC5)co4)cc3c2C(C)C)cc(C)n1 [Example 249, 2-(2-(2,6-dimethylpyridin-4-yl)-3-isopropyl-1H-indol-5-yl)-N-(1-isopropylpiperidin-4-yl)oxazole-4-carboxamide] | – | 7.5 nM | 27 nM
CC(C)c1c(-c2ccnc3[nH]ncc23)[nH]c2ccc(-c3ccc(C(C)N4CCOCC4)cc3)cc12 (stereo not drawn) [Example 372, 4-(1-(4-(3-isopropyl-2-(1H-pyrazolo[3,4-b]pyridin-4-yl)-1H-indol-5-yl)phenyl)ethyl)morpholine] | – | 13 nM | 250 nM

Next, values leading:

IC50 (human TLR9) | IC50 (human TLR8) | IC50 (human TLR7) | SMILES
686 nM | 4.4 nM | 203 nM | CC(C)CN1CCC(NC(=O)c2nnc(-c3ccc4[nH]c(-c5ccnc6[nH]ncc56)c(C(C)C)c4c3)o2)CC1 [Example 214, N-(1-isobutylpiperidin-4-yl)-5-(3-isopropyl-2-(1H-pyrazolo[3,4-b]pyridin-4-yl)-1H-indol-5-yl)-1,3,4-oxadiazole-2-carboxamide]
1800 nM | 50 nM | 327 nM | CCc1c(-c2ccnc(C)c2)[nH]c2ccc(-c3noc(CCC4CCNCC4)n3)cc12 [Example 448, 3-(3-ethyl-2-(2-methylpyridin-4-yl)-1H-indol-5-yl)-5-(2-(piperidin-4-yl)ethyl)-1,2,4-oxadiazole]
38000 nM | 10 nM | 947 nM | CC(C)c1c(-c2ccnc3[nH]ncc23)[nH]c2ccc(-c3c[nH]nc3C(F)(F)F)cc12 [Example 438, 4-(3-isopropyl-5-(3-(trifluoromethyl)-1H-pyrazol-4-yl)-1H-indol-2-yl)-1H-pyrazolo[3,4-b]pyridine]
790 nM | 5.8 nM | 45 nM | Cc1cc(-c2[nH]c3ccc(-c4ccnc(N5CCNCC5)c4)cc3c2C(C)C)ccn1 [Example 273, 3-isopropyl-2-(2-methylpyridin-4-yl)-5-(2-(piperazin-1-yl)pyridin-4-yl)-1H-indole]
> 50000 nM | – | 1280 nM | COc1ccc(-c2[nH]c3ccc(-c4cnc(N5CCN(Cc6ccsc6)CC5)nc4)cc3c2C(C)C)cc1OC [Example 429, 2-(3,4-dimethoxyphenyl)-3-isopropyl-5-(2-(4-(thiophen-3-ylmethyl)piperazin-1-yl)pyrimidin-5-yl)-1H-indole]
> 50000 nM | – | 2590 nM | COc1ccc(-c2[nH]c3ccc(-c4ccnc(N5CCN(CCC(F)(F)F)CC5)c4)cc3c2C(C)C)cc1OC [Example 424, 2-(3,4-dimethoxyphenyl)-3-isopropyl-5-(2-(4-(3,3,3-trifluoropropyl)piperazin-1-yl)pyridin-4-yl)-1H-indole]
290 nM | > 50000 nM | – | COc1ccc(-c2[nH]c3ccc(-c4ccc(-c5cncc6ccccc56)cc4)cc3c2C(C)C)cc1OC [Example 407, 4-(4-(2-(3,4-dimethoxyphenyl)-3-isopropyl-1H-indol-5-yl)phenyl)isoquinoline]
8760 nM | – | 1400 nM | COc1ccc(-c2[nH]c3ccc(-c4ccnc(N5CCN(Cc6ccsc6)CC5)c4)cc3c2C(C)C)cc1OC [Example 423, 2-(3,4-dimethoxyphenyl)-3-isopropyl-5-(2-(4-(thiophen-3-ylmethyl)piperazin-1-yl)pyridin-4-yl)-1H-indole]
647 nM | – | 3.4 nM | Cc1cc(-c2[nH]c3ccc(-c4nc5c(s4)CCNC5)cc3c2C(C)C)cc(C)n1 [Example 310, 2-(2-(2,6-dimethylpyridin-4-yl)-3-isopropyl-1H-indol-5-yl)-4,5,6,7-tetrahydrothiazolo[4,5-c]pyridine]
7070 nM | – | 1490 nM | COc1ccc(-c2[nH]c3ccc(-c4ccnc(N5CCN(CCC(C)O)CC5)c4)cc3c2C(C)C)cc1OC (stereo not drawn) [Example 425, 4-(4-(4-(2-(3,4-dimethoxyphenyl)-3-isopropyl-1H-indol-5-yl)pyridin-2-yl)piperazin-1-yl)butan-2-ol]
42100 nM | – | 896 nM | COc1ccc(-c2[nH]c3ccc(-c4cnc(Cl)n4C)cc3c2C(C)C)cc1OC [Example 437, 5-(2-chloro-1-methyl-1H-imidazol-5-yl)-2-(3,4-dimethoxyphenyl)-3-isopropyl-1H-indole]
– | 53 nM | 1330 nM | COc1ccc(-c2[nH]c3ccc(-c4cccc(C(=O)N5CCN(C(=O)C6CCCO6)CC5)c4)cc3c2CC(F)(F)F)cc1OC (stereo not drawn) [Example 33, (4-(3-(2-(3,4-dimethoxyphenyl)-3-(2,2,2-trifluoroethyl)-1H-indol-5-yl)benzoyl)piperazin-1-yl)(tetrahydrofuran-2-yl)methanone]
– | 1.9 nM | 14 nM | Cc1cc(-c2[nH]c3ccc(-c4ccc(NC(=O)C5CC(=O)N(C)C5)nc4)cc3c2C(C)C)ccn1 (stereo not drawn) [Example 332, N-(5-(3-isopropyl-2-(2-methylpyridin-4-yl)-1H-indol-5-yl)pyridin-2-yl)-1-methyl-5-oxopyrrolidine-3-carboxamide]
– | 230 nM | 2530 nM | CCc1c(-c2ccc(OC)c(OC)c2)[nH]c2ccc(-c3cccc(CN4CCN(C)CC4)c3)cc12 [Example 368, 2-(3,4-dimethoxyphenyl)-3-ethyl-5-(3-((4-methylpiperazin-1-yl)methyl)phenyl)-1H-indole]

From patent US11420958B2, “Aryl and heteroaryl substituted indole compounds” (BRISTOL-MYERS SQUIBB COMPANY, priority 2017, dated 2022)
